Results from patent US11000033B2, “Ketone or oxime compound, and herbicide” (NISSAN CHEMICAL CORPORATION, priority 2014, dated 2021).

What was measured:
Assay type in all cases: in vivo
Chenopodium album [1] = experiment: Test Example 4: herbicidal effect by soil treatment (symbol O); details: application herbicide amount 320 g/ha
Method in brief: (§1)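 Seeds were sown in sterilized diluvial soil, covered with about 1.5 cm of soil, and the soil surface was sprayed with a water-diluted emulsion of the compound at a predetermined rate. Plants grew in a greenhouse at 25° C. to 30° C.; effects were scored visually 3 weeks after application.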

Stellaria media = experiment: Test Example 5: herbicidal effect by foliage application, plastic box (symbol P); details: 320 g/ha, 3 weeks after application
Method in brief: (§2)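 Sowing in sterilized diluvial soil, 14 days' greenhouse growth at 25° C. to 30° C., then uniform small-sprayer foliar application of aqueous emulsion dilution; plants scored three weeks afterwards.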

Scirpus juncoides = experiment: Test Example 1: herbicidal activity, application before weed generation in submerged conditions (symbol B); details: application herbicide amount 320 g/ha
Method in brief: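 Paddy pre-emergence test. Formulated emulsion, water-diluted to a predetermined rate, is applied to floodwater on sowing day; rice transplanted at 2.5 leaves. Effect read at 3 weeks on a 0–5 herbicidal-ratio scale.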

Galium spurium = experiment: Test Example 5: herbicidal effect by foliage application, plastic box (symbol Q); details: 320 g/ha, 3 weeks after application
Method in brief: as §2

Digitaria ciliaris = experiment: Test Example 4: herbicidal effect by soil treatment (symbol F); details: application herbicide amount 320 g/ha
Method in brief: as §1

Setaria viridis = experiment: Test Example 5: herbicidal effect by foliage application, plastic box (symbol G); details: 320 g/ha, 3 weeks after application
Method in brief: as §2

soybean = experiment: Test Example 5: effect on crop by foliage application, plastic box (symbol d); details: 320 g/ha, 3 weeks after application
Method in brief: (§3)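 In a plastic box 7 cm deep filled with sterilized diluvial soil, seeds of crops and weeds such as Digitaria ciliaris, Avena fatua and Amaranthus retroflexus are sown in spots and covered with about 1.5 cm of soil before greenhouse growth at 25–30° C.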

Leptochloa chinensis = experiment: Test Example 3: herbicidal effect by foliage application, Wagner pot (symbol D); details: application herbicide amount 320 g/ha
Method in brief: (§4)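 Steps: fill pot with alluvial soil; add water to 0.1–0.5 cm depth; sow weed and rice seed; grow 14 days at 25–30 °C; spray diluted emulsion over the leaves; rate effect after 3 weeks.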

beet = experiment: Test Example 4: effect on crop by soil treatment (symbol f); details: application herbicide amount 320 g/ha
Method in brief: (§5)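 Steps: fill box with sterilized diluvial soil; sow seed spot-like; cover with ~1.5 cm soil; grow in greenhouse (25° C. to 30° C.).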

Alopecurus myosuroides = experiment: Test Example 5: herbicidal effect by foliage application, plastic box (symbol J); details: 320 g/ha, 3 weeks after application
Method in brief: as §2

Abutilon theophrasti = experiment: Test Example 5: herbicidal effect by foliage application, plastic box (symbol M); details: 320 g/ha, 3 weeks after application
Method in brief: as §2

rice plant = experiment: Test Example 5: effect on crop by foliage application, plastic box (symbol b); details: 320 g/ha, 3 weeks after application
Method in brief: as §3

Chenopodium album [2] = experiment: Test Example 5: herbicidal effect by foliage application, plastic box (symbol O); details: 320 g/ha, 3 weeks after application
Method in brief: as §2

[3] = system: Echinochloa crus-galli var. crus-galli; experiment: Test Example 4: herbicidal effect by soil treatment (symbol H); details: application herbicide amount 320 g/ha
Method in brief: as §1

Veronica persica = experiment: Test Example 5: herbicidal effect by foliage application, plastic box (symbol R); details: 320 g/ha, 3 weeks after application
Method in brief: as §2

Lolium multiflorum Lam. = experiment: Test Example 4: herbicidal effect by soil treatment (symbol K); details: application herbicide amount 320 g/ha
Method in brief: as §1

Amaranthus retroflexus = experiment: Test Example 4: herbicidal effect by soil treatment (symbol N); details: application herbicide amount 320 g/ha
Method in brief: as §1

rice = experiment: Test Example 4: effect on crop by soil treatment (symbol b); details: application herbicide amount 320 g/ha
Method in brief: as §5

Cyperus difformis = experiment: Test Example 3: herbicidal effect by foliage application, Wagner pot (symbol E); details: application herbicide amount 320 g/ha
Method in brief: as §4

Row | Compound | O: Chenopodium album, herbicidal effect grade (Chenopodium album [1]) | P: Stellaria media, herbicidal effect grade (Stellaria media) | Herbicidal effect grade, B: Scirpus juncoides (Scirpus juncoides) | Q: Galium spurium, herbicidal effect grade (Galium spurium) | F: Digitaria ciliaris, herbicidal effect grade (Digitaria ciliaris) | G: Setaria viridis, herbicidal effect grade (Setaria viridis) | d: soybean, effect on crop grade (soybean) | herbicidal effect on D (Leptochloa chinensis), grade 0-5 (Leptochloa chinensis) | f: beet, effect on crop grade (beet) | J: Alopecurus myosuroides, herbicidal effect grade (Alopecurus myosuroides) | M: Abutilon theophrasti, herbicidal effect grade (Abutilon theophrasti) | b: directly sowed rice plant, effect on crop grade (rice plant) | O: Chenopodium album, herbicidal effect grade (Chenopodium album [2]) | H: Echinochloa crus-galli var. crus-galli, herbicidal effect grade [3] | R: Veronica persica, herbicidal effect grade (Veronica persica) | K: Lolium multiflorum Lam., herbicidal effect grade (Lolium multiflorum Lam.) | N: Amaranthus retroflexus, herbicidal effect grade (Amaranthus retroflexus) | b: directly sowed rice plant, effect on crop grade (rice) | herbicidal effect on E, grade 0-5 (Cyperus difformis)
1 | CON=C(C)C1CC(O)=C(c2c(C)cc(C)cc2C)C1=O (mixture of isomers) [3-002] | 0 (Herbicidal ratio of 5% or lower (almost no effect)) | 0 (Herbicidal ratio of 5% or lower (almost no effect)) | 0 (Herbicidal ratio of 5% or lower (almost no effect)) | 0 (Herbicidal ratio of 5% or lower (almost no effect)) | 0 (Herbicidal ratio of 5% or lower (almost no effect)) | 2 (Herbicidal ratio of 20% or higher and lower than 40%) | 0 (Herbicidal ratio of 5% or lower (almost no effect)) | 0 (Herbicidal ratio of 5% or lower (almost no effect)) | 0 (Herbicidal ratio of 5% or lower (almost no effect)) | 0 (Herbicidal ratio of 5% or lower (almost no effect)) | 0 (Herbicidal ratio of 5% or lower (almost no effect)) | 3 (Herbicidal ratio of 40% or higher and lower than 70%) | 0 (Herbicidal ratio of 5% or lower (almost no effect)) | 0 (Herbicidal ratio of 5% or lower (almost no effect)) | 0 (Herbicidal ratio of 5% or lower (almost no effect)) | 0 (Herbicidal ratio of 5% or lower (almost no effect)) | 0 (Herbicidal ratio of 5% or lower (almost no effect)) | 0 (Herbicidal ratio of 5% or lower (almost no effect)) | 0 (Herbicidal ratio of 5% or lower (almost no effect))
2 | CON=C(C)CC1CC(O)=C(c2c(C)cc(-c3ccc(OC)cc3)cc2C)C1=O (mixture of isomers) [6-017] | 0 (Herbicidal ratio of 5% or lower (almost no effect)) | 1 (Herbicidal ratio of 5% or higher and lower than 20%) | 1 (Herbicidal ratio of 5% or higher and lower than 20%) | 0 (Herbicidal ratio of 5% or lower (almost no effect)) | 5 (Herbicidal ratio of 90% or more (almost completely withered)) | 5 (Herbicidal ratio of 90% or more (almost completely withered)) | 0 (Herbicidal ratio of 5% or lower (almost no effect)) | 5 (Herbicidal ratio of 90% or more (almost completely withered)) | 0 (Herbicidal ratio of 5% or lower (almost no effect)) | 5 (Herbicidal ratio of 90% or more (almost completely withered)) | 0 (Herbicidal ratio of 5% or lower (almost no effect)) | 5 (Herbicidal ratio of 90% or more (almost completely withered)) | 4 (Herbicidal ratio of 70% or higher and lower than 90%) | 3 (Herbicidal ratio of 40% or higher and lower than 70%) | 3 (Herbicidal ratio of 40% or higher and lower than 70%) | 4 (Herbicidal ratio of 70% or higher and lower than 90%) | 1 (Herbicidal ratio of 5% or higher and lower than 20%) | 3 (Herbicidal ratio of 40% or higher and lower than 70%) | 4 (Herbicidal ratio of 70% or higher and lower than 90%)
3 | CON=C(C)CC1CC(O)=C(c2c(C)cc(-c3ccc(Cl)cc3)cc2C)C1=O (mixture of isomers) [6-029] | 3 (Herbicidal ratio of 40% or higher and lower than 70%) | 3 (Herbicidal ratio of 40% or higher and lower than 70%) | 3 (Herbicidal ratio of 40% or higher and lower than 70%) | 5 (Herbicidal ratio of 90% or more (almost completely withered)) | 5 (Herbicidal ratio of 90% or more (almost completely withered)) | 5 (Herbicidal ratio of 90% or more (almost completely withered)) | 0 (Herbicidal ratio of 5% or lower (almost no effect)) | 5 (Herbicidal ratio of 90% or more (almost completely withered)) | 0 (Herbicidal ratio of 5% or lower (almost no effect)) | 5 (Herbicidal ratio of 90% or more (almost completely withered)) | 4 (Herbicidal ratio of 70% or higher and lower than 90%) | 5 (Herbicidal ratio of 90% or more (almost completely withered)) | 4 (Herbicidal ratio of 70% or higher and lower than 90%) | 5 (Herbicidal ratio of 90% or more (almost completely withered)) | 4 (Herbicidal ratio of 70% or higher and lower than 90%) | 5 (Herbicidal ratio of 90% or more (almost completely withered)) | 0 (Herbicidal ratio of 5% or lower (almost no effect)) | 5 (Herbicidal ratio of 90% or more (almost completely withered)) | 5 (Herbicidal ratio of 90% or more (almost completely withered))
4 | CON=C(C)CC1CC(O)=C(c2c(C)cc(-c3cccc(Cl)c3)cc2C)C1=O (mixture of isomers) [6-034] | 0 (Herbicidal ratio of 5% or lower (almost no effect)) | 3 (Herbicidal ratio of 40% or higher and lower than 70%) | 5 (Herbicidal ratio of 90% or more (almost completely withered)) | 5 (Herbicidal ratio of 90% or more (almost completely withered)) | 5 (Herbicidal ratio of 90% or more (almost completely withered)) | 5 (Herbicidal ratio of 90% or more (almost completely withered)) | 0 (Herbicidal ratio of 5% or lower (almost no effect)) | 5 (Herbicidal ratio of 90% or more (almost completely withered)) | 0 (Herbicidal ratio of 5% or lower (almost no effect)) | 5 (Herbicidal ratio of 90% or more (almost completely withered)) | 3 (Herbicidal ratio of 40% or higher and lower than 70%) | 5 (Herbicidal ratio of 90% or more (almost completely withered)) | 3 (Herbicidal ratio of 40% or higher and lower than 70%) | 5 (Herbicidal ratio of 90% or more (almost completely withered)) | 3 (Herbicidal ratio of 40% or higher and lower than 70%) | 5 (Herbicidal ratio of 90% or more (almost completely withered)) | 2 (Herbicidal ratio of 20% or higher and lower than 40%) | 2 (Herbicidal ratio of 20% or higher and lower than 40%) | 4 (Herbicidal ratio of 70% or higher and lower than 90%)
